Results published in patent US20240158370A1, “CK1 alpha AND DUAL CK1 alpha / GSPT1 DEGRADING COMPOUNDS” (Innovo Therapeutics, Inc., priority 2022, published 2024).

How the values were obtained:
Assay type in all cases: cell-based
CK1α = molecular target: T1, CK1α (Homo sapiens, UniProt P48729+Q96SW2); assay: HiBiT degradation assay, CK1α, Procedure A
T1 construct: CSNK1A1-HiBit KI HEK293(LgBit) Cells; host or cells: HEK293(LgBit) knock-in cells
How it was run: (§1)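 Six-hour treatment at 37° C, ten doses between 10 μM and 0.005 μM, then HiBiT lytic luminescence. Fitted DC50 and Ymin.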

Z-138 cells = assay: Z-138 Proliferation Assay (Cell Titer-Glo); details: 72 hours; for Ymin (%): % remaining (percent of DMSO control); for EC50: Homo sapiens, Cell Titer-Glo, 4-parameter curve fit
Procedure: Z-138 Proliferation Assay
Z-138 cells were cultured in IMDM Medium supplemented with 10% heat in-activated fetal bovine serum and 1% Penicillin-Streptomycin.
10 mM stocks of compound were made from fresh powder. DMSO was added to solid compound so that the final concentration was 10 mM. Compounds were vortexed and allowed to sit for 5 minutes to ensure complete solubility. Solvated compound was aliquoted into 1 ml Eppendorf tubes and stored in a −20° C. freezer.
Z-138 cells were maintained in culture using standard cell culturing techniques.
Cells were maintained at a density of 0.8×10^6 cells/ml.
Re-constitute cell titer-glo reagent according to manufacturer's protocol.
Z-138 cells were removed from culture and cell viability and density were determined using a CellDrop™ Automated Cell Counter with Tryphan blue stain according to manufacturer's protocols. Cells were centrifuged and resuspended using fresh media to a cell density of 0.1×10^6 cells/ml. […] 40 μl of cell suspension was added to the wells of a 384 well tissue culture plate (4,000 cells/well final). Upon completing the addition of the cells to the plate, the plates were centrifuged for 30 seconds at 300 rpms to help the cells settle and to bring air bubbles to the top of the wells. Air bubbles were popped using a pipette tip.
10-point dose response curves were performed using a D300e Digital Dispenser. The highest concentration of compound used in the assay was 10,000 nM. 1:2 dilutions were performed over a 10-point range with the final DMSO concentration being 0.1%. The cells were cultured for 72 hours in the presence of compound.
After 72 hours, the cell plates were removed from the incubator and allowed to equilibrate to room temperature (about 15 minutes). 20 μl of cell titer-glo reagent was added to each well of the 384 well plate. Incubated the plate for 30 minutes in the dark. After 30 minutes, ensured that there were no air bubbles in the plate (popped bubbles with pipette tip if necessary) and analyzed plate using a luminometer.
EC50 curves were generated using Prism Graph Pad. In brief, POCs (percent of control, compound/DMSO control×100) were plotted against the compound concentrations (log scale). EC50 curves were generated using a 4-parameter curve fit.

GSPT1 [1] = molecular target: T2, GSPT1 (Homo sapiens, UniProt P15170+Q96SW2); assay: HiBiT degradation assay, GSPT1, Procedure A; set-up: HiBit-GSPT1 KI HEK293(LgBit) Cells; host or cells: HEK293(LgBit) knock-in cells; details: six hours incubation
How it was run: as §1

GSPT1 [2] = molecular target: T2, GSPT1; assay: HiBiT degradation assay, GSPT1, Procedure B (Molt 4_hGSPT1_HiBIT cells); set-up: Molt 4_hGSPT1_HiBIT N-terminus tagged cells were generated using CRISPR technology; endogenous in cells; host or cells: Molt 4 cells, CRISPR-edited; details: six hours
How it was run: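 CRISPR N-terminal HiBiT-tagged Molt 4 cells at 1×10^6 cells/ml were treated 6 h at 37° C with compounds (10-point, 10 μM to 0.005 μM, 0.1% DMSO). Remaining HiBiT-GSPT1 was read by lytic luminescence; DC50 and Ymin (% remaining) from a 4-parameter fit.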

T2 sequence (P15170 whole entry): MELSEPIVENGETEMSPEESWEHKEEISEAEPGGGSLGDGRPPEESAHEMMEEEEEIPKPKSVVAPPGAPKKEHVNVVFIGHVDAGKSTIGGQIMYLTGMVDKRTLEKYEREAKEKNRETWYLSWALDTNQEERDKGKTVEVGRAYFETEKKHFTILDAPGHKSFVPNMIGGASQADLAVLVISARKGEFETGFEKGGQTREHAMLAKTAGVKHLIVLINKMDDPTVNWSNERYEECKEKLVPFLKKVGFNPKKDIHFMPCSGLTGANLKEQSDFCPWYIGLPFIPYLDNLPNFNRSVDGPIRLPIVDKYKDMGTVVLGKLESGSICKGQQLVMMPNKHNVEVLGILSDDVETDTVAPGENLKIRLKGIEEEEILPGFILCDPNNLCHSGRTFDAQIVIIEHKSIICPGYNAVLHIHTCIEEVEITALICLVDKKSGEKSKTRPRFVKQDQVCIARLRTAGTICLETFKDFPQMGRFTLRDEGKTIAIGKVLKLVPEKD
T2 sequence (Q96SW2 whole entry): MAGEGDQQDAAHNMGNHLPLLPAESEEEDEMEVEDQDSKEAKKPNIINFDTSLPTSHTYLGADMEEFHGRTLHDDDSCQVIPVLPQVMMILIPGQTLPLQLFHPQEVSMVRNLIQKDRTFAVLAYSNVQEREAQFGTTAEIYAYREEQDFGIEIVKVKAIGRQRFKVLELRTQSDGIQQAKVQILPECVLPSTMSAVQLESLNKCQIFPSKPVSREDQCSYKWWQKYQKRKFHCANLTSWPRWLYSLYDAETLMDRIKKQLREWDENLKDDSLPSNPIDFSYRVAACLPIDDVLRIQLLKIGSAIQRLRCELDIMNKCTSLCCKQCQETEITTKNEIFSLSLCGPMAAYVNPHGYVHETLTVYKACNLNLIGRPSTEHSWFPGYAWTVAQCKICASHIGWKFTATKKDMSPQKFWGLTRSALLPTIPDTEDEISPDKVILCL
T2 sequence (Q16531 whole entry partner): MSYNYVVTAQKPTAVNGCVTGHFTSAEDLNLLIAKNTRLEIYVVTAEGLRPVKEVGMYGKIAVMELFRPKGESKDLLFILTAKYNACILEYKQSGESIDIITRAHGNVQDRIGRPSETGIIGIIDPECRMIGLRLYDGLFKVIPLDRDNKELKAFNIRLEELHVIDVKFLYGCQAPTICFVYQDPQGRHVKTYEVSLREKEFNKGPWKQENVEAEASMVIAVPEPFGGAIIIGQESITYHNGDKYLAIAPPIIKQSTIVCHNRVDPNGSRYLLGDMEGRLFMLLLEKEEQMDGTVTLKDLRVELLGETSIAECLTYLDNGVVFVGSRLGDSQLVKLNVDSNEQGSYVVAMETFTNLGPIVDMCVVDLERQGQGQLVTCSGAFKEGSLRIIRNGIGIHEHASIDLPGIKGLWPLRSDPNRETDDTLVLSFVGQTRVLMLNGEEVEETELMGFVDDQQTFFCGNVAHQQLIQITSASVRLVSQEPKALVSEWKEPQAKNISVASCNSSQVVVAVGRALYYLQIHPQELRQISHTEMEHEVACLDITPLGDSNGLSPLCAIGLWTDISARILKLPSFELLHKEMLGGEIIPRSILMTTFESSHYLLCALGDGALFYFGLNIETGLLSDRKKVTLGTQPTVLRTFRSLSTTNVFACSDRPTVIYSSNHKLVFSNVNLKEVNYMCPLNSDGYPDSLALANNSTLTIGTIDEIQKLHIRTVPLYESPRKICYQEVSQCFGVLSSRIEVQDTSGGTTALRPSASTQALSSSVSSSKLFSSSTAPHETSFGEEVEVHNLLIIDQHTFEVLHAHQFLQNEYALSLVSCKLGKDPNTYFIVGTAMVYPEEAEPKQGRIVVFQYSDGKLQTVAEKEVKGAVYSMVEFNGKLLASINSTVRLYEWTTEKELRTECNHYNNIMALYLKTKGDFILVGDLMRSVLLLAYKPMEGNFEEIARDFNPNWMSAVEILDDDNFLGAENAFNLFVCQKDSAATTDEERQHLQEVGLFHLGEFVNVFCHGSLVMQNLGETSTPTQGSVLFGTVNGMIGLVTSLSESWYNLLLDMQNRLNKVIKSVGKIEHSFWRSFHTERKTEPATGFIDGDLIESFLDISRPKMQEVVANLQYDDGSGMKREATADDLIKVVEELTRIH
T1 sequence (P48729 whole entry): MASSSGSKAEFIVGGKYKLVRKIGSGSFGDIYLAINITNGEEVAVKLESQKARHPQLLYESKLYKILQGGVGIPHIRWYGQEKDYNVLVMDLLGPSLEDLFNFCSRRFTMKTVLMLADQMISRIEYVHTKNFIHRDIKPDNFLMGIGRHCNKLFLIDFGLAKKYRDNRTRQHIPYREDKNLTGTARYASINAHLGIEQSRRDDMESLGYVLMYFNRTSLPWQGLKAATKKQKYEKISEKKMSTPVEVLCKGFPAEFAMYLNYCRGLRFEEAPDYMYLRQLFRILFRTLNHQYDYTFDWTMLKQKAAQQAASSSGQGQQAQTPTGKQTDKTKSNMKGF
T1 sequence (Q96SW2 whole entry): as the sequence (Q96SW2 whole entry) above
T1 sequence (Q16531 whole entry partner): as the sequence (Q16531 whole entry partner) above

Structure (SMILES) | CK1α Ymin (CK1α; six hours incubation) | DC50 (CK1α; six hours incubation) [nM] | DC50 (GSPT1 [1]) [nM] | GSPT1 Ymin (GSPT1 [1]) | CK1α Ymin (CK1α; six hours) | DC50 (CK1α; six hours) [nM] | DC50 (GSPT1 [2]) [nM] | GSPT1 Ymin (GSPT1 [2]) | Ymin (%) (Z-138 cells) | EC50 (Z-138 cells) [nM]
O=C1CCC(N2Cc3cc(-c4nccn4-c4ccccc4)ccc3C2=O)C(=O)N1 (stereo not shown) [Example 7, 3-(1-Oxo-5-(1-phenyl-1H-imidazol-2-yl)isoindolin-2-yl)piperidine-2,6-dione] | C (C = 0-10% remaining) | < 25 | < 25 | E (E = >25-75% remaining) | – | – | – | – | D (0-10% remaining) | < 10
Cn1c(C2CC2)nc(-c2ccc3c(c2)CN(C2CCC(=O)NC2=O)C3=O)c1-c1ccccc1 (stereo not shown) [Example 12, 3-(5-(2-cyclopropyl-1-methyl-5-phenyl-1H-imidazol-4-yl)-1-oxoisoindolin-2-yl)piperidine-2,6-dione] | C (C = 0-10% remaining) | < 25 | ≥ 25 | E (E = >25-75% remaining) | – | – | – | – | D (0-10% remaining) | < 10
Cc1nc(-c2ccc3c(c2)CN(C2CCC(=O)NC2=O)C3=O)c(-c2ccccc2)n1C (stereo not shown) [Example 14, 3-(5-(1,2-Dimethyl-5-phenyl-1H-imidazol-4-yl)-1-oxoisoindolin-2-yl)piperidine-2,6-dione] | C (C = 0-10% remaining) | < 25 | ≥ 25 | E (E = >25-75% remaining) | – | – | – | – | D (0-10% remaining) | < 10
Cn1nc(-c2ccc3c(c2)CN(C2CCC(=O)NC2=O)C3=O)cc1-c1ccc(F)cc1 (stereo not shown) [Example 488, 3-(5-(5-(4-fluorophenyl)-1-methyl-1H-pyrazol-3-yl)-1-oxoisoindolin-2-yl)piperidine-2,6-dione] | – | – | – | – | D (D = >10- 25% remaining) | < 25 | – | – | E (>10-25% remaining) | 10 to 100
Cn1nc(-c2ccc3c(c2)CN(C2CCC(=O)NC2=O)C3=O)nc1N1CCCC1 (stereo not shown) [Example 713, 3-(5-(1-methyl-5-(pyrrolidin-1-yl)-1H-1,2,4-triazol-3-yl)-1-oxoisoindolin-2-yl)piperidine-2,6-dione] | – | – | – | – | D (D = >10- 25% remaining) | < 25 | < 25 | F (F = >75-100% remaining) | – | –
Cn1cc(-c2ccc3c(c2)CN(C2CCC(=O)NC2=O)C3=O)nc1C1(C)CCCCC1 (stereo not shown) [Example 714, 3-(5-(1-methyl-2-(1-methylcyclohexyl)-1H-imidazol-4-yl)-1-oxoisoindolin-2-yl)piperidine-2,6-dione] | – | – | – | – | E (E = >25-75% remaining) | < 25 | < 25 | F (F = >75-100% remaining) | – | –
Cn1cc(-c2ccc3c(c2)CN(C2CCC(=O)NC2=O)C3=O)nc1[C@H]1CC[C@H](C)CC1 (stereo partly shown) [Example 715, 3-(5-(1-Methyl-2-((1r,4r)-4-methylcyclohexyl)-1H-imidazol-4-yl)-1-oxoisoindolin-2-yl)piperidine-2,6-dione] | – | – | – | – | D (D = >10- 25% remaining) | < 25 | < 25 | E (E = >25-75% remaining) | – | –
Cn1cc(-c2ccc3c(c2)CN(C2CCC(=O)NC2=O)C3=O)nc1[C@H]1[C@@H]2COC[C@@H]21 (stereo partly drawn) [Example 716, 3-(5-(2-((1R,5S,6s)-3-oxabicyclo[3.1.0]hexan-6-yl)-1-methyl-1H-imidazol-4-yl)-1-oxoisoindolin-2-yl)piperidine-2,6-dione] | – | – | – | – | E (E = >25-75% remaining) | < 25 | ≥ 25 | F (F = >75-100% remaining) | – | –
Cn1cc(-c2ccc3c(c2)CN(C2CCC(=O)NC2=O)C3=O)nc1C12CCC(CC1)CC2 (stereo not shown) [Example 718, 3-(5-(2-(bicyclo[2.2.2]octan-1-yl)-1-methyl-1H-imidazol-4-yl)-1-oxoisoindolin-2-yl)piperidine-2,6-dione] | – | – | – | – | E (E = >25-75% remaining) | < 25 | ≥ 25 | F (F = >75-100% remaining) | – | –
Cn1cc(-c2ccc3c(c2)CN(C2CCC(=O)NC2=O)C3=O)nc1C12CCN(CC1)CC2 (stereo not shown) [Example 719, 3-(5-(1-methyl-2-(quinuclidin-4-yl)-1H-imidazol-4-yl)-1-oxoisoindolin-2-yl)piperidine-2,6-dione] | – | – | – | – | E (E = >25-75% remaining) | ≥ 25 | ≥ 25 | F (F = >75-100% remaining) | – | –
CCc1nc(-c2ccc3c(c2)CN(C2CCC(=O)NC2=O)C3=O)c(-c2ccccc2)o1 (stereo not shown) [Example 720, 3-(5-(2-ethyl-5-phenyloxazol-4-yl)-1-oxoisoindolin-2-yl) piperidine-2,6-dione] | – | – | – | – | C (C = 0-10% remaining) | < 25 | < 25 | E (E = >25-75% remaining) | – | –
Cn1cc(-c2ccc3c(c2)CN(C2CCC(=O)NC2=O)C3=O)nc1-c1ccc(N2CCNCC2)cc1 (stereo not shown) [Example 721] | – | – | – | – | D (D = >10- 25% remaining) | ≥ 25 | ≥ 25 | F (F = >75-100% remaining) | – | –

Now from value to compound, other results behind:

CK1α Ymin (CK1α; six hours incubation) | DC50 (CK1α; six hours incubation) [nM] | DC50 (GSPT1 [1]) [nM] | GSPT1 Ymin (GSPT1 [1]) | CK1α Ymin (CK1α; six hours) | DC50 (CK1α; six hours) [nM] | DC50 (GSPT1 [2]) [nM] | GSPT1 Ymin (GSPT1 [2]) | Structure (SMILES) | Ymin (%) (Z-138 cells) | EC50 (Z-138 cells) [nM]
– | – | – | – | D (D = >10- 25% remaining) | ≥ 25 | < 25 | F (F = >75-100% remaining) | Cn1cc(-c2ccc3c(c2)CN(C2CCC(=O)NC2=O)C3=O)nc1-c1ccc2c(c1)CC(=O)N2 (stereo not shown) [Example 722] | – | –
– | – | – | – | C (C = 0-10% remaining) | < 25 | ≥ 25 | F (F = >75-100% remaining) | CC(=O)Nc1ccc(-c2nc(-c3ccc4c(c3)CN(C3CCC(=O)NC3=O)C4=O)cn2C)cc1 (stereo not shown) [Example 723] | – | –
– | – | – | – | C (C = 0-10% remaining) | < 25 | ≥ 25 | F (F = >75-100% remaining) | Cn1cc(-c2ccc3c(c2)CN(C2CCC(=O)NC2=O)C3=O)nc1-c1cccc(F)c1F (stereo not shown) [Example 724] | – | –
– | – | – | – | C (C = 0-10% remaining) | < 25 | ≥ 25 | F (F = >75-100% remaining) | Cn1cc(-c2ccc3c(c2)CN(C2CCC(=O)NC2=O)C3=O)nc1-c1cc(F)ccc1Cl (stereo not shown) [Example 725] | – | –
– | – | – | – | C (C = 0-10% remaining) | < 25 | ≥ 25 | F (F = >75-100% remaining) | Cn1c(C2CCC2)nc(-c2ccc3c(c2)CN(C2CCC(=O)NC2=O)C3=O)c1-c1ccccc1 (stereo not shown) [Example 727, 3-(5-(2-cyclobutyl-1-methyl-5-phenyl-1H-imidazol-4-yl)-1-oxoisoindolin-2-yl)piperidine-2,6-dione] | – | –
– | – | – | – | C (C = 0-10% remaining) | < 25 | ≥ 25 | F (F = >75-100% remaining) | O=C1CCC(N2Cc3cc(-c4nc(C5CC5)oc4-c4ccccc4)ccc3C2=O)C(=O)N1 (stereo not shown) [Example 734, 3-(5-(2-cyclopropyl-5-phenyloxazol-4-yl)-1-oxoisoindolin-2-yl)piperidine-2,6-dione] | – | –
– | – | – | – | C (C = 0-10% remaining) | < 25 | < 25 | E (E = >25-75% remaining) | O=C1CCC(N2Cc3cc(-c4nc(C(F)F)oc4-c4ccccc4)ccc3C2=O)C(=O)N1 (stereo not shown) [Example 735, 3-(5-(2-(difluoromethyl)-5-phenyloxazol-4-yl)-1-oxoisoindolin-2-yl) piperidine-2,6-dione] | – | –
